Data published in patent US20180207228A1, “PEPTIDE COMBINATIONS AND USES THEREOF FOR TREATING GRASS ALLERGY” (ALK-Abelló A/S, priority 2015, published 2018).
Entries after “also recorded” stand apart in the source; their conditions may differ. Where no end group is shown, it is not given here.

Key:
[1] = system: grass allergic donor derived T cell lines (TCL-02 DK-2); test: Cross-reactivity of homologue peptides, proliferation on TCL02-DK2 (Study XR1); format: cell-based, human; conditions: for experimental cross-reactivity: 2 μg/ml, TCL02-DK2, 21 donors
Protocol: To measure the experimental cross-reactivity the proliferation assay of Example 3 was carried out on 21 grass allergic donors (TCL02-DK2). […] Cross-reactivity to Phleum pratense peptides with either close (Lolium perenne (Lol p)) or distant (Phalaris aquatica (Pha a), Cynodon dactylon (Cyn d)) species was experimentally investigated.
For analysing the cross-reactivity data, it was investigated if a donor responds to both native and homologue peptide, XY correlation plots were made where the donor responses to native peptides were plotted versus the donor responses to homologues. […] If less than five donors were responding to the parent peptides, then the data was considered to be in-conclusive, and were thus labelled with “-”. For some of the peptides the analysis was further supported by performing a Spearman r-Non Parametric test (data not shown).
Further the magnitude of T cell response from a parent peptide as defined herein and homologue response were plotted in a XY plot by using GraphPad Prism 6.
To measure the experimental cross-reactivity, the proliferation assay of Example 3 was carried out on 21 grass pollen allergic donors (TCL02-DK2, Study XR1) and 20 grass pollen allergic donors (TCL03−DK1+DK2, Study XR2). […] In Study XR1, Cross-reactivity to Phleum pratense peptides with either close (Lolium perenne-Lol p) or distant ([…]-Pha a, Cynodon dactylon-Cyn d) species was experimentally investigated. In Study XR1, 67 homologue peptides corresponding to 41 native Phleum pratense peptides were investigated together with the 41 Phleum pratense peptides at a concentration of 2 μg/ml. Similarly, study XR2 was carried out on 20 grass pollen allergic donors where donor derived TCL-03 lines were used to investigate Phleum pratense cross-reactivity to Poa pratensis (Poa p), Dactylis glomerata (Dac g), Festuca pratensis (Fes p), Paspalum notatum (Pas n), Sorghum halepense (Sor h), Lolium perenne (Lol p), Phalaris aquatica (Pha a) and Cynodon dactylon (Cyn d).

[2] = Peptide solubility by visual inspection; format: physicochemical; conditions: for Visual inspection after 60 min pH 7 / Visual inspection after centrifugation pH 7: 250 mM D-Mannitol and 25 mM sodium phosphate
Protocol: Water (pH 3-5) • 2. 250 mM D-Mannitol and 25 mM sodium acetate, pH 4.5 • 3. 250 mM D-Mannitol and 25 mM sodium phosphate, pH 7.0 • 4. […] Water (pH 3-5) • 2. 250 mM D-Mannitol and 25 mM sodium acetate, pH 4.5 • 3. 250 mM D-Mannitol and 25 mM sodium phosphate, pH 7.0 • 4. […] A subset of the peptides was selected as candidate peptides for a final peptide mixture. […] During the solubility studies the peptide-containing solutions were inspected visually before and after filtration for turbidity, and presence of particles/aggregates. In addition, presence of turbidity/particles/aggregates was also detected by optical density (OD) or absorbance of filtered material, but might also be detected by size-exclusion chromatography. Furthermore, Sub-visual particles may also be detected by dynamic light scattering (DLS) analysis on filtered and non-filtered peptide containing solutions. Samples were furthermore subjected to centrifugation to allow for the possible visual inspection of pelleted material.

[3] = Extended solubility and short term stability study (visual, U-HPLC recovery, DLS, 90LS, UV-VIS, sum of scores); conditions: for solubility: pH 4.5
Protocol: For that purpose, the peptides were provided as acetate salts (produced by Innovagen® at a >10 mg scale of manufacturing). To take into account batch-to-batch variations, some peptides were tested from other batches of the manufacturer Innovagen®, as well as from another manufacturer (Almac) and from in-house production. Solubility experiments were performed on peptide in solution in concentrations ranging from 0.5 mg/mL to 3 mg/mL (dry matter)—with the following solvents: • Water • Acetate buffer, pH 4.5 (25 mM sodium acetate containing 250 mM D-Mannitol) • Phosphate buffer, pH 7.0 (25 mM sodium phosphate containing 250 mM D-Mannitol) • Glycine buffer, pH 8.5 (25 mM glycine containing 250 mM D-Mannitol)
The solubility of the peptides was initially investigated by visual inspection and U-HPLC recovery. Visual inspection included assessment of turbidity and presence of particles/aggregates of each peptide solution before and after centrifugation as well as visual inspection of pelleted material. The visual inspection were reported as “clear solution”, “very small precipitation only visible with a magnifier”, “precipitation visible/turbid solution” or “more precipitation/turbid solution”. Filtration of peptide solutions were conducted using syringe based filters containing a polyethersulfone (PES) membrane chemistry and a pore size of 0.2 μm. The amount of the peptide in the supernatant of a filtered sample was determined using U-HPLC with reverse phase chromatography and recovery were determined as described in Example 5.
Peptide solutions were investigated at a time point of 1 hour after production, but were also repeated at later time point (e.g. 24. 48 or 96 hours) to investigate the stability of the peptides.
Peptide solutions were investigated to determine the presence of turbidity/particles/aggregates by use of optical density (OD) and change in UV-VIS absorbance at a wavelength of 320 nm, of the filtrate. […] In addition or as an alternative, the amount of the peptide in the supernatant of a filtered sample was determined using U-HPLC as described above, with the exception that the recovery was determined by dividing the peak area of the filtered sample in relation to the peak area in the original solution prior to filtration. See also Example 5 for further details regarding UV-VIS, and recovery measured by U-HPLC.
The peptides were scored in relation to the outcome of the above mentioned tests: For each peptide in a given buffer and at a given concentration, a sum of test scores was calculated and the sum used to rank the peptides according to solubility: • 1. […] DLS peak 1 number 3 nm gave a score of 1, 3-10 nm gave a score of 2, 10-100 nm gave a score of 3, >100 nm gave a score of 4. • 5. 90LS at 400 nm: Intensity <450 gave a score of 1, <800 gave a score of 2, >800 gave a score of 3. • 6. UV-VIS change in absorbance at 320 nm within 24 hours: 0.01 gave a score of 1, ≤0.05 gave a score of 2, 0.0.2 gave a score of 3 and >0.2 gave a score of 4.

[4] = system: allergen specific T cells; test: T cell proliferation assay (72 h) on donor derived T cell lines (TCL02/TCL03); format: cell-based, human; conditions: single peptide
Procedure, shortened: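 CD8-depleted PBMCs from grass-allergic donors stimulated with natural grass allergen mix (nPhl p 1 0.5 μg/ml) to raise T cell lines; restimulated with irradiated APCs, allergens or PHA-P (0.5 μg/ml) plus rIL-2. Proliferation to overlapping 20-mer and selected 15-mer grass peptides tested with TCL02 (day 24) or TCL03 (day 34).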

[5] = system: grass pollen allergic donor derived TCL-03 lines; test: Extended cross-reactivity study, proliferation on TCL03 DK1+DK2 (Study XR2), scoring; format: cell-based, human; conditions: study XR2; for Cross-reactivity score, Cyn d: homologue from Cyn d; for Cross-reactivity score, Dac g: homologue from Dac g; for Cross-reactivity score, Fes p: homologue from Fes p; for Cross-reactivity score, Lol p: homologue from Lol p; for Cross-reactivity score, Pha a: homologue from Pha a; for Cross-reactivity score, Poa p: homologue from Poa p; for Cross-reactivity sum: scores of all species added; for Cross-reactivity/species: sum divided by the number of species measured
[6] = 3 mg/mL, acetate salt, non-filtered
[7] = 3 mg/mL, acetate salt, non-filtered, after centrifugation

CC[C@H](C)[C@H](NC(=O)[C@@H](NC(=O)[C@H](CC(=O)O)NC(=O)[C@H](CCC(=O)O)NC(=O)[C@H](C)NC(=O)[C@H](CCC(=O)O)NC(=O)[C@@H](N)[C@@H](C)O)C(C)C)C(=O)N1CCC[C@H]1C(=O)N[C@@H](CCC(=O)O)C(=O)NCC(=O)N[C@@H](Cc1c[nH]c2ccccc12)C(=O)N[C@@H](CCCCN)C(=O)N[C@@H](C)C(=O)N[C@@H](CC(=O)O)C(=O)N[C@H](C(=O)N[C@@H](CO)C(=O)N[C@@H](Cc1ccc(O)cc1)C(=O)N[C@@H](CCC(=O)O)C(=O)N[C@@H](CO)C(=O)N[C@@H](CCCCN)C(=O)O)[C@@H](C)O [peptide 213]
experimental cross-reactivity [1]: showed cross-reactivity

AGELELQFRRVKSKYPEGTK-OH [peptide 207]
solubility in aqueous solutions [2]: surprisingly good solubility in aqueous solutions
solubility, 1st round of solubility screening [2]: soluble
Visual inspection after 60 min pH 7 [2, 6]: tread +
Visual inspection after centrifugation pH 7 [2, 7]: +
solubility in all the test samples (concentrations and pH tested), all solubility tests [3]: good solubility
solubility in aqueous solutions and short-term stability [3]: sufficiently soluble
solubility [3]: acceptable solubility
T cell response in % of the donors tested [4]: ~40%
Cross-reactivity score, Cyn d ([5]; score 0 to 7): 0
Cross-reactivity score, Dac g ([5]; score 0 to 7): 3
Cross-reactivity score, Fes p ([5]; score 0 to 7): 6
Cross-reactivity score, Lol p ([5]; score 0 to 7): 6
Cross-reactivity score, Pas n ([5]; homologue from Pas n, score 0 to 7): 0.5
Cross-reactivity score, Pha a ([5]; score 0 to 7): 6
Cross-reactivity score, Poa p ([5]; score 0 to 7): 1
Cross-reactivity sum [5]: 22.5
Cross-reactivity/species [5]: 3.2

AYRTAATAANAAPAN-OH [compound 353]
Cross-reactivity score ([1]; homologue of peptide 241 (Phl p 5), Table 51, based on results from Study XR1 (score 5 upgraded to 7)): 7
cross-reactivity of homologue ([1]; homologues of peptide 241, Study XR1): very high cross-reactivity

EAKYDAYVATLSEALRIIAG-OH [peptide 233]
experimental cross-reactivity [1]: showed cross-reactivity; also recorded: good cross reactivity

GFKAALAAAAGVPPADKYRT-OH [peptide 230]
experimental cross-reactivity [1]: showed cross-reactivity

GRGSGSSFEIKSTKPEASSG-OH [compound 202]
experimental cross-reactivity [1]: showed cross-reactivity

GSDPKKLVLNIKYTRPGDSL-OH [peptide 217]
solubility, 1st round of solubility screening [2]: soluble
Visual inspection after 60 min pH 4.5 ([2]; 3 mg/mL, acetate salt, non-filtered, 250 mM D-Mannitol and 25 mM sodium acetate, pH 4.5): + particles
Visual inspection after centrifugation pH 4.5 ([2]; 3 mg/mL, acetate salt, non-filtered, 250 mM D-Mannitol and 25 mM sodium acetate, pH 4.5, after centrifugation): Ok
Visual inspection after 60 min pH 7 [2, 6]: particles +
Visual inspection after centrifugation pH 7 [2, 7]: ++
experimental cross-reactivity [1]: showed cross-reactivity
solubility in all the test samples (concentrations and pH tested), all solubility tests [3]: good solubility
solubility in aqueous solutions and short-term stability [3]: sufficiently soluble
solubility [3]: acceptable solubility
Cross-reactivity score, Dac g ([5]; score 0 to 7): 1
Cross-reactivity score, Lol p ([5]; score 0 to 7): 5
Cross-reactivity sum [5]: 6
Cross-reactivity/species [5]: 3

HGSEEWEPLTKKGNVWEVKS-OH [compound 218]
experimental cross-reactivity [1]: showed cross-reactivity

KDKWIELKESWGAIWRIDTP-OH [peptide 210]
experimental cross-reactivity [1]: showed cross-reactivity

TKKGNVWEVKSSKPLVGPFN-OH [peptide 219]
experimental cross-reactivity [1]: showed cross-reactivity

YHFDLSGHAFGAMAKKGDEQ-OH [peptide 205]
solubility, 1st round of solubility screening [2]: soluble
experimental cross-reactivity [1]: showed cross-reactivity
solubility in all the test samples (concentrations and pH tested), all solubility tests [3]: good solubility
solubility in aqueous solutions and short-term stability [3]: sufficiently soluble
solubility [3]: acceptable solubility
Cross-reactivity score, Cyn d ([5]; score 0 to 7): 2
Cross-reactivity score, Dac g ([5]; score 0 to 7): 7
Cross-reactivity score, Fes p ([5]; score 0 to 7): 7
Cross-reactivity score, Lol p ([5]; score 0 to 7): 7
Cross-reactivity score, Pha a ([5]; score 0 to 7): 6
Cross-reactivity score, Poa p ([5]; score 0 to 7): 3
Cross-reactivity score, Sor h ([5]; homologue from Sor h, score 0 to 7): 7
Cross-reactivity sum [5]: 39
Cross-reactivity/species [5]: 5
